Reference: patent US6825197B2, “Cyclic GMP-specific phosphodiesterase inhibitors” (Lilly ICOS LLC, priority 2000, dated 2004)

What was measured:
[1] = biological target: T1, recombinant human PDE5 (Homo sapiens, UniProt O76074); assay: Inhibitory effect on cGMP-PDE (PDE5 inhibition, one-step assay); assay type: biochemical; details: in vitro test; human recombinant PDE5, 0.15 μM 8-[H3]-cGMP, 30 minutes incubation; read-out: IC50 values versus PDE5
T1 construct: host or cells: Saccharomyces cerevisiae strain BJ2-54 (ATCC 74465), described as an exemplary method
Protocol: The compounds of structural formula (I) were tested for an ability to inhibit PDE5. The ability of a compound to inhibit PDE5 activity is related to the IC50 value for the compound, i.e., the concentration of inhibitor required for 50% inhibition of enzyme activity. The IC50 value for compounds of structural formula (I) were determined using recombinant human PDE5.
The production of recombinant human PDEs and the IC50 determinations can be accomplished by well-known methods in the art. Exemplary methods are described as follows:
Phosphodiesterase activity of the preparations was determined as follows. PDE assays utilizing a charcoal separation technique were performed essentially as described in Loughney et al. (1996). […] The [32P]5′-AMP or [32P]5′-GMP then was quantitatively converted to free [32P] phosphate and unlabeled adenosine or guanosine by the action of snake venom 5′-nucleotidase. […] PDE enzyme was present in quantities that yield <30% total hydrolysis of substrate (linear assay conditions). […] After centrifugation (750×g for 3 minutes) to sediment the charcoal, a sample of the supernatant was taken for radioactivity determination in a scintillation counter and the PDE activity was calculated.
cGMP-PDE activity of compounds of the present invention was measured using a one-step assay adapted from Wells et al., Biochim. […]

melting point [°C]	IC50 [1] [nM]	Structure (SMILES)
226 to 237	1.7	O=C1[C@H]2Cc3c([nH]c4ccccc34)[C@@H](c3ccc4c(c3)OCO4)N2C(=O)C2CNCCN12 (mixture of isomers) [Example 1, (5aR,12R)-12-Benzo(1,3)dioxol-5-yl-5,5a,8,9,10,10a,12,13-octahydro-7H-6a,9,11a,13-tetraza-indeno[1,2-b]anthracene-6,11-dione]
284 to 289	3.9	COc1ccc(CC(=O)N2CCN3C(=O)[C@H]4Cc5c([nH]c6ccccc56)[C@@H](c5ccc6c(c5)OCO6)N4C(=O)C3C2)cc1OC (stereo partly drawn) [Example 3, (5aR,12R)-12-Benzo(1,3)dioxol-5-yl-9-[2-(3,4-dimethoxyphenyl)ethanoyl]-5,5a,8,9, 10, 10a,12,13-octahydro-7H-6a,9,11a,13-tetraaza-indeno[1,2-b]anthracene-6,11-dione]
